This is an account of results in patent publication US9796697B2, “Tricyclic inhibitors of HIF-2-alpha and uses thereof” (Peloton Therapeutics, Inc., priority 2015, dated 2017).

The target in assay [1] is T1, HIF-2α HIS TAG-PASB Domain (Homo sapiens, UniProt Q99814).
T1 construct: 100 nM HIF-2α HIS TAG-PASB Domain
Briefly: HIF-2α Scintillation Proximity Assay (SPA). The format is binding. The conditions noted are these: displacement of tritiated probe N-(3-Chlorophenyl-4,6-t2)-4-nitrobenzo[c][1,2,5]oxadiazol-5-amine from HIF-2α PASB domain. As to the method:
Example 8: HIF-2α Scintillation Proximity Assay (SPA)
The total assay volume was about 100 μL in the following configuration: 2 μL compound in 100% DMSO, 88 μL buffer with protein and probe and 10 μL of SPA beads. The compound was diluted in a master plate consisting of a 10-point dose response with a 3-fold compound dilution from 100 μM to 5 nM. Assays were run on a 96-well plate in which one column, designated as the high signal control, contained DMSO with no compound and another column, designated as the low signal control, contained no protein. Prior to plating out of compound, a buffer solution, consisting of 25 mM TRIS pH 7.5 (Sigma), 150 mM NaCl (Sigma), 15% Glycerol (Sigma), 0.15% BSA (Sigma), 0.001% Tween-20 (Sigma), 150 nM N-(3-Chlorophenyl-4,6-t2)-4-nitrobenzo[c][1,2,5]oxadiazol-5-amine and 100 nM HIF-2α HIS TAG-PASB Domain, was made and allowed to equilibrate for 30 minutes. Compounds that were to be tested were then plated in to a 96-well white clear bottom Isoplate-96 SPA plate (Perkin Elmer). To the compounds was added 88 μL of the buffer solution, then the plate covered with a plastic cover and aluminum foil, placed onto a shaker and equilibrated for 1 hour. After equilibration, 10 μL of a 2 mg/mL solution of YSi Cu His tagged SPA beads (Perkin Elmer) were then added to each well of the plate, covered and equilibrated for another 2 hours. The plates were then removed from the shaker, placed into a 1450 LSC and luminescence counter MicroBeta Trilux (Perkin Elmer) to measure the extent of probe displacement. The percent inhibition was determined and IC50 values were calculated using the Dotmatics system based on the following equation: % inhibition=[(high control−sample)/(high control−low control)]×100.

The subject of the next assay is 786-O-Hif-Luc cells. The assay can be described thus: Luciferase Assay. It is filed as cell-based. The conditions noted are these: HIF responsive element luciferase reporter, about 24 hours. The method, then: Example 10: Luciferase Assay
786-O-Hif-Luc single clone cells were obtained by infecting 786-0 cells (ATCC® CRL-1932™) with commercial lentivirus that delivers a luciferase gene driven by multiple HIF responsive elements (Cignal Lenti HIF Reporter (luc): CLS-007L, Qiagen) at Multiplicity of Infection (MOI) of 25 for 24 hours. The cells were replenished with fresh medium (Dulbecco's Modified Eagle's Medium (DMEM, D5796, Sigma) supplemented with 10% FBS (F6178, Sigma), 100 units penicillin and 100 μg streptomycin/mL (P4333, Sigma)) for another 24 hours. A pool of infected cells were then selected against 2 μg/mL of puromycin (P8833, Sigma) for 10 days followed by limited dilution to select single clones. […] For the luciferase assay, about 7500 786-O-Hif-Luc cells in 90 μL growth medium were seeded into each well of a 96-well white opaque plate (08-771-26, Fisher scientific) a day before treatment with the layout presented in FIG. 2.
On treatment day, serial dilutions of 10× compound stocks were made in growth medium from 500×DMSO stocks, and 10 μL, of the 10× stocks were added to each well to make final concentrations as follows GAM): 20, 6.67, […], 0.74, 0.25, 0.08, 0.027, 0.009, 0.003, 0.001, and 0. Each concentration was tested in triplicate. After about 24 hours, luciferase activity was determined using ONE-Glo Luciferase Assay Reagent (E6110, Promega) following the manufacturer's recommended procedure. EC50 were calculated using Dotmatics software.
On the technique in general: A reporter such as luciferase makes a cellular process visible.

A further assay relates to 786-O cells. The assay can be described thus: VEGF ELISA Assay. It is filed as cell-based. As to conditions: Homo sapiens, 786-0; VEGF concentration in culture medium of 786-O cells. As to the method:
Example 9: VEGF ELISA Assay
About 7500 786-O cells in 180 μL of growth medium were seeded into each well of a 96-well, white, clear bottom plate (07-200-566, Fisher Scientific) on day one in the layout presented in FIG. 1.
Four hours later, serial dilutions of 10× compound stocks were made in growth medium from 500×DMSO stocks, and 20 μL of those 10× stocks were added to each well to make final concentrations as follows (μM): 20, 6.67, 2.22, 0.74, 0.25, 0.082, 0.027, 0.009, 0.003, 0.001, and 0. Each concentration was plated in duplicate. About 20 hours later, medium was removed by suction and each well was supplied with 180 μL of growth medium. About 20 μl freshly-made 10× compound stocks were added to each well. […] The EC50 was calculated by GraphPad Prism using the dose-response-inhibition (four parameter) equation. The cell-seeded plate was then subjected to CellTiter-Glo luminescence cell viability assay (Promega) by adding 50 μL of Celltiter Glo reagent into each well and shaking the plate for 8 minutes at 550 rpm (Thermomixer R, Eppendorf) then the luminescence signal immediately read in a plate reader (3 second delay, 0.5 second/well integration time, Synergy 2 multi Detection Microplate reader).

T1 sequence (Q99814 239-348): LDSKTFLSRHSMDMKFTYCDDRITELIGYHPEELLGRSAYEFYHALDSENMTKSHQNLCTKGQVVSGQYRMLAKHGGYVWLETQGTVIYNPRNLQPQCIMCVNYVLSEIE

As a reminder, the EC50 is the concentration at which the effect is half-maximal. As to `N#Cc1cc(F)cc(Oc2ccc3c4c2C(F)CC4(F)CS3(=O)=O)c1` (centres unmarked) [Compound 1], in assay [1], the EC50 is > 1 µM.

Turning to `N#Cc1cncc(Oc2ccc3c4c2C(F)CC4(F)C(F)(F)S3(=O)=O)c1` (centres unmarked) [Compound 2], the EC50 in assay [1] was > 1 µM.

Consider `C=C1CC2(N)c3c(ccc(Oc4cc(F)cc(C#N)c4)c31)S(=O)(=O)C2(F)F` (centres unmarked) [Compound 3, 3-((2a-amino-2,2-difluoro-4-methylene-1,1-dioxido-2,2a,3,4-tetrahydroindeno[7,1-bc]thiophen-5-yl)oxy)-5-fluorobenzonitrile], for which the EC50 in the assay with 786-O-Hif-Luc cells lay within 0.25 to 1 µM; in assay [1], 0.05 to 0.249 µM.

In the case of `N#Cc1cc(F)cc(Oc2ccc3c4c2CCC4(O)C(F)(F)S3(=O)=O)c1` (centres unmarked) [Compound 4], the EC50 (in the assay with 786-O-Hif-Luc cells; in assay [1]) was 0.05 to 0.249 µM each time.

On to `N#Cc1cc(F)cc(Oc2ccc3c4c2C(F)C(F)C4(O)CS3(=O)=O)c1` (centres unmarked) [Compound 5], for which the EC50 (with 786-O-Hif-Luc cells; in assay [1]) was > 1 µM throughout.

As to `N#Cc1cc(F)cc(Oc2ccc3c4c2C(F)CC4(O)C(F)(F)S3(=O)=O)c1` (centres unmarked) [Compound 6, 3-fluoro-5-((2,2,4-trifluoro-2a-hydroxy-1,1-dioxido-2,2a,3,4-tetrahydroindeno[7,1-bc]thiophen-5-yl)oxy)benzonitrile], the values for the EC50 (in the assay with 786-O cells; in the assay with 786-O-Hif-Luc cells; in assay [1]) were 0.05 to 0.249 µM, < 0.05 µM and < 0.05 µM, respectively.

`N#Cc1cc(F)cc(Oc2ccc3c4c2C(F)CC4(O)CS3(=O)=O)c1` (centres unmarked) [Compound 7]: the EC50 in assay [1] is > 1 µM.

As to `CC1CC2(O)c3c(ccc(Oc4cc(F)cc(C#N)c4)c31)S(=O)(=O)C2(F)F` (centres unmarked) [Compound 8, 3-((2,2-difluoro-2a-hydroxy-4-methyl-1,1-dioxido-2,2a,3,4-tetrahydroindeno[7,1-bc]thiophen-5-yl)oxy)-5-fluorobenzonitrile], the EC50 (with 786-O-Hif-Luc cells; in assay [1]) was 0.05 to 0.249 µM each time.

For the compound `C=C1CC2(O)c3c(ccc(Oc4cncc(F)c4)c31)S(=O)(=O)C2(F)F` (centres unmarked) [Compound 9], the EC50 (in the assay on 786-O-Hif-Luc cells; in assay [1]) was 0.25 to 1 µM each time.

Consider `N#Cc1cc(F)cc(Oc2ccc3c4c2C(F)CC4(F)C(F)(F)S3(=O)=O)c1` (centres unmarked) [Compound 10, 3-fluoro-5-((2,2,2a,4-tetrafluoro-1,1-dioxido-2,2a,3,4-tetrahydroindeno[7,1-bc]thiophen-5-yl)oxy)benzonitrile], for which, in assay [1], the EC50 fell in the range of 0.25 to 1 µM.

As for `N#Cc1cc(F)cc(Oc2ccc3c4c2C(=O)CC4(O)C(F)(F)S3(=O)=O)c1` (centres unmarked) [Compound 11, 3-((2,2-difluoro-2a-hydroxy-1,1-dioxido-4-oxo-2,2a,3,4-tetrahydroindeno[7,1-bc]thiophen-5-yl)oxy)-5-fluorobenzonitrile], the EC50 (with 786-O-Hif-Luc cells; in assay [1]) was 0.25 to 1 µM in each case.

Regarding `C=C1CC2(O)CS(=O)(=O)c3ccc(Oc4cc(F)cc(C#N)c4)c1c32` (centres unmarked) [Compound 12], the EC50 in assay [1] is > 1 µM.

On to `C=C1CC2(O)c3c(ccc(Oc4cc(F)cc(C#N)c4)c31)S(=O)(=O)C2(F)F` (centres unmarked) [Compound 13, 3-((2,2-difluoro-2a-hydroxy-4-methylene-1,1-dioxido-2,2a,3,4-tetrahydroindeno[7,1-bc]thiophen-5-yl)oxy)-5-fluorobenzonitrile], for which the EC50 (in the assay with 786-O cells; in the assay on 786-O-Hif-Luc cells; in assay [1]) was < 0.05 µM throughout.

For the compound `C=C1CC2(O)c3c(ccc(Oc4cncc(C#N)c4)c31)S(=O)(=O)C2(F)F` (centres unmarked) [Compound 14], the EC50 with 786-O-Hif-Luc cells is 0.25 to 1 µM; in assay [1], < 0.05 µM.

For `N#Cc1cc(F)cc(Oc2ccc3c4c2[C@@H](F)C[C@]4(O)C(F)(F)S3(=O)=O)c1` [Compound 15], the EC50 (in the assay with 786-O cells; with 786-O-Hif-Luc cells; in assay [1]) was < 0.05 µM in each case.

For the compound `N#Cc1cc(F)cc(Oc2ccc3c4c2C(F)C(F)C4(F)CS3(=O)=O)c1` (centres unmarked) [Compound 16], the EC50 in assay [1] is > 1 µM.

Take `C=C1CC2(O)c3c(ccc(OCC(F)F)c31)S(=O)(=O)C2(F)F` (centres unmarked) [Compound 17]: the EC50 in assay [1] was > 1 µM.

Regarding `N#Cc1cc(F)cc(Oc2ccc3c4c2CCC4C(F)(F)S3(=O)=O)c1` (centres unmarked) [Compound 18], the EC50 was in the range of 0.25 to 1 µM in the assay on 786-O-Hif-Luc cells and 0.05 to 0.249 µM in assay [1].

For `N#Cc1cncc(Oc2ccc3c4c2C(F)CC4(O)C(F)(F)S3(=O)=O)c1` (centres unmarked) [Compound 19], the EC50 with 786-O-Hif-Luc cells lay in the range of 0.25 to 1 µM; in assay [1], 0.05 to 0.249 µM.

`N#Cc1cc(F)cc(Oc2ccc3c4c2C(F)C[C@@]4(O)C(F)(F)S3(=O)=O)c1` (some centres unmarked) [Compound 20]: the EC50 in assay [1] was > 1 µM.
